Read-outs that look alike come from different tables or passages of the source.
Tests used:
CDK4/cyclin D1 = CDK4/cyclin D1 (Homo sapiens, UniProt P11802); test: Kinase assay CDK4/cyclin D1; assay type: biochemical
Procedure, shortened: (§1)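 Radiometric kinase assays with recombinant enzymes (2-4 μg) and polypeptide substrates in β-glycerophosphate/MOPS/EGTA buffer, pH 7.4. Started with 15 mM MgCl2 + 100 μM ATP containing [γ-32P]-ATP, incubated at 30° C; incorporated 32P captured on filterplates and counted. Compounds diluted in 10% DMSO assay buffer.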

CDK7/cyclin H = CDK7/cyclin H (Homo sapiens, UniProt P50613); test: CDK7 assay; assay type: biochemical
Procedure, shortened: (§2)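 Recombinant human CDK7/cyclin H or CDK9/cyclin T1 (0.5–2 μg) phosphorylated biotinylated CTD heptapeptide-repeat substrate for 45 min at 30 °C in MOPS pH 7.2 buffer with 15 mM MgCl2 and 100 μM ATP plus [γ-32P]ATP. After avidin capture on P81 filters and phosphoric acid washes, 32P incorporation was counted by scintillation.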

GSK-3β = GSK-3β (Homo sapiens, UniProt P49841); test: Kinase assay GSK-3β; assay type: biochemical
Procedure, shortened: as §1

CDK1/cyclin B = CDK1/cyclin B (Homo sapiens, UniProt P06493); test: Kinase assay CDK1/cyclin B; assay type: biochemical
Procedure, shortened: as §1

A549 = test: 72-h MTT cytotoxicity assay A549; assay type: cell-based; conditions: Homo sapiens, A549, 72 h
Procedure, shortened: (§3)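 Read-out is MTT formazan dissolved in DMSO after a 4 h dark incubation with dye at 37° C. Before that, cells seeded according to doubling time received a 1/3 dilution series of compound in triplicate for 72 h at 37° C.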

HT29 = test: 72-h MTT cytotoxicity assay HT29; assay type: cell-based; conditions: Homo sapiens, HT-29, 72 h
Procedure, shortened: as §3

CDK9/cyclin T1 = CDK9/cyclin T1 (Homo sapiens, UniProt P50750); test: CDK9 assay; assay type: biochemical
Procedure, shortened: as §2

Saos-2 = test: 72-h MTT cytotoxicity assay Saos-2; assay type: cell-based; conditions: Homo sapiens, SAOS-2, 72 h
Procedure, shortened: as §3

all transformed cells = test: 72-h MTT cytotoxicity assay, summary over all transformed cells; assay type: cell-based; conditions: Homo sapiens
Procedure: MTT cytotoxicity assay. […] Standard 72-h MTT (thiazolyl blue; 3-[4,5-dimethylthiazol-2-yl]-2,5-diphenyltetrazolium bromide) assays were performed (Haselsberger, K.; Peterson, D. C.; Thomas, D. G.; Darling, J. L. Anti Cancer Drugs 1996, 7, 331-8; Loveland, B. E.; Johns, T. G.; Mackay, I. R.; Vaillant, F.; Wang, Z. X.; Hertzog, P. J. Biochemistry International 1992, 27, 501-10). In short: cells were seeded into 96-well plates according to doubling time and incubated overnight at 37° C. Test compounds were made up in DMSO and a 1/3 dilution series prepared in 100 μL cell media, added to cells (in triplicates) and incubated for 72 ho at 37° C. MTT was made up as a stock of 5 mg/mL in cell media and filter-sterilised. Media was removed from cells followed by a wash with 200 μL PBS.
MTT solution was then added at 20 μL per well and incubated in the dark at 37° C. for 4 h. MTT solution was removed and cells again washed with 200 μL PBS. MTT dye was solubilised with 200 μL per well of DMSO with agitation.

[1] = Table 2, read-out: Kinase Inhibition IC50 CDK4 cyclin D1
[2] = Table 2, read-out: Kinase Inhibition IC50 CDK7 cyclin H
[3] = Table 2, read-out: Kinase Inhibition IC50 GSK-3β
[4] = Table 2, read-out: Kinase Inhibition IC50 CDK1 cyclin B
[5] = Table 2, read-out: Kinase Inhibition IC50 CDK9 cyclin T1
[6] = Table 3 selectivity panel, read-out: Kinase specificity IC50 CDK4/D1
[7] = Table 3 selectivity panel, CDK7/cyclin H/MAT 1 complex, read-out: Kinase specificity IC50 CDK7/H
[8] = Table 3 selectivity panel, glycogen synthase kinase 3β, read-out: Kinase specificity IC50 GSK-3
[9] = Table 3 selectivity panel, read-out: Kinase specificity IC50 CDK1/B1
[10] = Table 5, average over transformed cell lines, read-out: 72-h MTT IC50 Average (all transformed cells)
[11] = Table 5, median over transformed cell lines, read-out: 72-h MTT IC50 Median (all transformed cells)
[12] = Table 3 selectivity panel, read-out: Kinase specificity IC50 CDK9/T1

Sequence of CDK4/cyclin D1 (P11802 whole entry): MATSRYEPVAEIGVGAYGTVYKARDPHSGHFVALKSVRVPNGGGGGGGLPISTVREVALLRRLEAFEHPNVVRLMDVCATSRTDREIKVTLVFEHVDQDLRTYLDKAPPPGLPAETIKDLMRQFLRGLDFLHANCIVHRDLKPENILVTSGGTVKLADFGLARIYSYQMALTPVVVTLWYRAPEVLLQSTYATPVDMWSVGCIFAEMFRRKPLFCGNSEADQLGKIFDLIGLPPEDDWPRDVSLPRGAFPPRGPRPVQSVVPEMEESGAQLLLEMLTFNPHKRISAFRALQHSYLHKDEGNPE
Sequence of CDK4/cyclin D1 (P24385 whole entry partner): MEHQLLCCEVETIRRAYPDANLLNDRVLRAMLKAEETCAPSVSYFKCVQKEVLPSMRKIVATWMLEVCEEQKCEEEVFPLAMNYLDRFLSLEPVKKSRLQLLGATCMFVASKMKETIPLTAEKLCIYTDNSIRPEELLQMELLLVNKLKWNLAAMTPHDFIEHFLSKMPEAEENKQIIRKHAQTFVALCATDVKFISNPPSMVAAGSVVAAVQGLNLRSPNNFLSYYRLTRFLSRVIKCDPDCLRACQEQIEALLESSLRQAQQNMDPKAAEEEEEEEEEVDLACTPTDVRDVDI
Sequence of CDK7/cyclin H (P50613 whole entry): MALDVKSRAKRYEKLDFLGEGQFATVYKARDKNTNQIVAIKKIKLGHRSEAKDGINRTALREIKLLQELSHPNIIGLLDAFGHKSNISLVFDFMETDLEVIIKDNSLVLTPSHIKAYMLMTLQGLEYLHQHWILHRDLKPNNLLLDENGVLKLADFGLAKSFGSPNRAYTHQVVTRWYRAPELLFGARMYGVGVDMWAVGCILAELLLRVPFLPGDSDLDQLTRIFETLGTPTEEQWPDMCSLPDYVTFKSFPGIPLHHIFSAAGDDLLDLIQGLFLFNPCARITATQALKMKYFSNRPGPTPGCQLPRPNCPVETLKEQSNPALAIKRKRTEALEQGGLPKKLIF
Sequence of GSK-3β (P49841 whole entry): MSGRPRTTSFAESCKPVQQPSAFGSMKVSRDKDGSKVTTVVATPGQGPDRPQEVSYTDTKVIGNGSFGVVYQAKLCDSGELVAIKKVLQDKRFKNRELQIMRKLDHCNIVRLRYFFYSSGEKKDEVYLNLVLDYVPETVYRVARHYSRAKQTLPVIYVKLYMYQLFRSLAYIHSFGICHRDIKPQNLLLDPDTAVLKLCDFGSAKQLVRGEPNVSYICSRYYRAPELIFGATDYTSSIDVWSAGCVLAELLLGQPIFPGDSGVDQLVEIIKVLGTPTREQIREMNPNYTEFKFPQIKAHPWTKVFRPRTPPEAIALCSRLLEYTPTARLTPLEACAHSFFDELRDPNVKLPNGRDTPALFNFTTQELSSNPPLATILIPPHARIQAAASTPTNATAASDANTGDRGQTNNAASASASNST
Sequence of CDK1/cyclin B (P06493 whole entry): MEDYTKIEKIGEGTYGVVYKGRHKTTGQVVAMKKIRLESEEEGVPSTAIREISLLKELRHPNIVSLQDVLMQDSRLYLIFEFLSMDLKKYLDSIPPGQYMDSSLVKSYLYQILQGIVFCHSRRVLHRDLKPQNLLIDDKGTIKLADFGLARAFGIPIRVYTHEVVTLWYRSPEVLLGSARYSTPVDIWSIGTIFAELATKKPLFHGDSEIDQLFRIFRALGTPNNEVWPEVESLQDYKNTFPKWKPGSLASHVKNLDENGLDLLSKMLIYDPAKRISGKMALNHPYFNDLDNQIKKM
Sequence of CDK1/cyclin B (P14635 whole entry partner): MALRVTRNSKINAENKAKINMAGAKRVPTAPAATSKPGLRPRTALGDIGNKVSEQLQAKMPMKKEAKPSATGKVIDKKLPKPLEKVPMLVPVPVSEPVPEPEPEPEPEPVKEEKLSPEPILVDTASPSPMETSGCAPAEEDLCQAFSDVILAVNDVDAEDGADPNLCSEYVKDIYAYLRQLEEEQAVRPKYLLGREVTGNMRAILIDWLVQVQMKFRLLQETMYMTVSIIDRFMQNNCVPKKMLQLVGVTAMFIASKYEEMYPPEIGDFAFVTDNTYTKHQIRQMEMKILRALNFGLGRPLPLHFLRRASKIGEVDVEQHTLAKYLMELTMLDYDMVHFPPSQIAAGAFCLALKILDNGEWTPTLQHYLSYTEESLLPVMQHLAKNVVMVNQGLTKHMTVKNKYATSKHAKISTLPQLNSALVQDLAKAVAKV
Sequence of CDK9/cyclin T1 (P50750 whole entry): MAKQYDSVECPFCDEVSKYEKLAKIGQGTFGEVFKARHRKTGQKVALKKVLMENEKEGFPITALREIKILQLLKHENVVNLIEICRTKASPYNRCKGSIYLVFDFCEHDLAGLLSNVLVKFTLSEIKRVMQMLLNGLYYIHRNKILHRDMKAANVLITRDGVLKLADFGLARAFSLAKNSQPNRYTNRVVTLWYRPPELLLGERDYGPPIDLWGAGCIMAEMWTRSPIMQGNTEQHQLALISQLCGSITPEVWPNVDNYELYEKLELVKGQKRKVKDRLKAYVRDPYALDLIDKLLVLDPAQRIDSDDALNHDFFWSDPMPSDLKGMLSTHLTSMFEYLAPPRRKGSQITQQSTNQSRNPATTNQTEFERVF
Sequence of CDK9/cyclin T1 (O60563 whole entry partner): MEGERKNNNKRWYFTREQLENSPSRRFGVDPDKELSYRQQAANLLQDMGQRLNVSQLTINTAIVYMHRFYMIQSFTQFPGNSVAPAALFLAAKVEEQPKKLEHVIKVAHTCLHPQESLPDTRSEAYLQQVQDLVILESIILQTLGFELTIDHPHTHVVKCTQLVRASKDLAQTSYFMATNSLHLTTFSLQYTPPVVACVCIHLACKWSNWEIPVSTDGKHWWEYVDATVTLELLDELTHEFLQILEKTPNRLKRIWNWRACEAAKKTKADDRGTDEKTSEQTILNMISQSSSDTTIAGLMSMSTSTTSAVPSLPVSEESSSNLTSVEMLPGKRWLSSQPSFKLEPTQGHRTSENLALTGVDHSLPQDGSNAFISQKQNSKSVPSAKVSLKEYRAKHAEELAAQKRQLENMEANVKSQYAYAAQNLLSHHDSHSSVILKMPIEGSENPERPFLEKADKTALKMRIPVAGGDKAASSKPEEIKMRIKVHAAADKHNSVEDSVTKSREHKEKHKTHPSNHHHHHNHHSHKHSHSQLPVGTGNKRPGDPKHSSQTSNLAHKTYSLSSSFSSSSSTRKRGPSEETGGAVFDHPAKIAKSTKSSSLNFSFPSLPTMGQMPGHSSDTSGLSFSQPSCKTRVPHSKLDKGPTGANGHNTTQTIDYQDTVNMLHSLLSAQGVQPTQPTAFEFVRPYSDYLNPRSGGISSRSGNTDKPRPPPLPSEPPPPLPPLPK

Cc1nc(C)c(-c2ccnc(Nc3ccc(NC(=O)CN4CCCC4)cc3)n2)s1 [Compound 53, N-{4-[4-(2,4-Dimethyl-thiazol-5-yl)-pyrimidin-2-ylamino]-phenyl}-2-pyrrolidin-1-yl-acetamide] showed an IC50 (CDK4/cyclin D1; [1]) of 0.04 µM, an IC50 (CDK7/cyclin H; [2]) of 0.44 µM and an IC50 (GSK-3β; [3]) of 23 µM. For the same molecule, the IC50 (CDK1/cyclin B; [4]) was 5.2 µM, the IC50 (A549; Table 4) was 0.77 µM and the IC50 (HT29; Table 4) was 0.95 µM. It also gave an IC50 (CDK9/cyclin T1; [5]) of 0.093 µM and an IC50 (Saos-2; Table 4) of 0.53 µM.

Molecule CCNc1nc(C)c(-c2ccnc(Nc3ccc(N4CCOCC4)cc3)n2)s1 [Compound 4, [4-(2-Ethylamino-4-methyl-thiazol-5-yl)-pyrimidin-2-yl]-(4-morpholin-4-yl-phenyl)-amine] has an IC50 (CDK4/cyclin D1; [1]) of 0.43 µM, an IC50 (CDK7/cyclin H; [2]) of 12 µM and an IC50 (GSK-3β; [3]) of over 100 µM. For the same molecule, the IC50 (CDK1/cyclin B; [4]) was 30 µM, the IC50 (A549; Table 4) was 0.77 µM and the IC50 (HT29; Table 4) was 0.92 µM. For the same molecule, the IC50 (CDK9/cyclin T1; [5]) was 1.8 µM and the IC50 (Saos-2; Table 4) was 1.2 µM.

For CC[C@@H](N)C(=O)Nc1nc(C)c(-c2ccnc(Nc3cccc([N+](=O)[O-])c3)n2)s1 [Compound 16, (2R)-2-Amino-N-{4-methyl-5-[2-(3-nitro-phenylamino)-pyrimidin-4-yl]-thiazol-2-yl}-butyramide], the IC50 (CDK4/cyclin D1; [1]) was 6.7 µM, the IC50 (CDK4/cyclin D1; [6]) was 6.7 µM and the IC50 (CDK7/cyclin H; [2]) was 1.1 µM. For the same molecule, the IC50 (CDK7/cyclin H; [7]) was 0.97 µM, the IC50 (GSK-3β; [3]) was 0.68 µM and the IC50 (GSK-3β; [8]) was 0.68 µM. For the same molecule, the IC50 (CDK1/cyclin B; [4]) was 2.8 µM, the IC50 (CDK1/cyclin B; [9]) was 2.8 µM and the IC50 (A549; Table 4) was 0.53 µM. It also gave an IC50 (A549; Table 5, Lung) of 0.5 µM, an IC50 (HT29; Table 4) of 0.29 µM and an IC50 (HT29; Table 5, Colon) of 0.3 µM. It also gave an IC50 (all transformed cells; [10]) of 0.6 µM, an IC50 (all transformed cells; [11]) of 0.4 µM and an IC50 (CDK9/cyclin T1; [5]) of 0.11 µM. It also gave an IC50 (CDK9/cyclin T1; [12]) of 0.2 µM and an IC50 (Saos-2; Table 5, Bone osteosarcoma) of 0.6 µM.

CNc1nc(C)c(-c2ccnc(Nc3ccc(N4CCOCC4)cc3)n2)s1 [Compound 3, [4-(2-N-Methylamino-4-methyl-thiazol-5-yl)-pyrimidin-2-yl]-(4-morpholinophenyl)-amine] was tested, and the IC50 (CDK4/cyclin D1; [1]) was 1.4 µM, the IC50 (CDK4/cyclin D1; [6]) was 0.15 µM and the IC50 (CDK7/cyclin H; [2]) was 106 µM. It also gave an IC50 (CDK7/cyclin H; [7]) of over 100 µM, an IC50 (GSK-3β; [3]) of over 100 µM and an IC50 (GSK-3β; [8]) of over 100 µM. It also gave an IC50 (CDK1/cyclin B; [4]) of 71 µM, an IC50 (CDK1/cyclin B; [9]) of over 100 µM and an IC50 (A549; Table 4) of 3.7 µM. It also gave an IC50 (HT29; Table 4) of 2.8 µM, an IC50 (CDK9/cyclin T1; [5]) of 12 µM and an IC50 (CDK9/cyclin T1; [12]) of 8.5 µM. For the same molecule, the IC50 (Saos-2; Table 4) was 3.1 µM.

With Cc1nc(NC(=O)[C@H](N)[C@@H](C)O)sc1-c1ccnc(Nc2cccc([N+](=O)[O-])c2)n1 [Compound 15, (2R,3R)-2-Amino-3-hydroxy-N-{4-methyl-5-[2-(3-nitro-phenylamino)-pyrimidin-4-yl]-thiazol-2-yl}-butyramide] the IC50 (CDK4/cyclin D1; [1]) was 2 µM, the IC50 (CDK4/cyclin D1; [6]) was 1.6 µM and the IC50 (CDK7/cyclin H; [2]) was 0.34 µM. It also gave an IC50 (CDK7/cyclin H; [7]) of 0.39 µM, an IC50 (GSK-3β; [3]) of 0.61 µM and an IC50 (GSK-3β; [8]) of 0.54 µM. It also gave an IC50 (CDK1/cyclin B; [4]) of 5.4 µM, an IC50 (CDK1/cyclin B; [9]) of 1.6 µM and an IC50 (A549; Table 4) of 1.1 µM. The IC50 (A549; Table 5, Lung) was 0.6 µM, the IC50 (HT29; Table 4) was 1 µM and the IC50 (HT29; Table 5, Colon) was 0.5 µM. It also gave an IC50 (all transformed cells; [10]) of 1.2 µM, an IC50 (all transformed cells; [11]) of 0.9 µM and an IC50 (CDK9/cyclin T1; [5]) of 0.07 µM. It also gave an IC50 (CDK9/cyclin T1; [12]) of 0.11 µM, an IC50 (Saos-2; Table 4) of 1.9 µM and an IC50 (Saos-2; Table 5, Bone osteosarcoma) of 0.4 µM.

CNc1nc(C)c(-c2ccnc(Nc3ccc(N4CCN(Cc5ccccc5)CC4)cc3)n2)s1 [Compound 11, [4-(4-Benzyl-piperazin-1-yl)-phenyl]-[4-(4-methyl-2-methylamino-thiazol-5-yl)-pyrimidin-2-yl]-amine] was tested, and the IC50 (CDK4/cyclin D1; [1]) was 0.0098 µM, the IC50 (CDK4/cyclin D1; [6]) was 0.0098 µM and the IC50 (CDK7/cyclin H; [2]) was 0.019 µM. It also gave an IC50 (CDK7/cyclin H; [7]) of 0.019 µM, an IC50 (GSK-3β; [3]) of 6 µM and an IC50 (GSK-3β; [8]) of 6 µM. The IC50 (CDK1/cyclin B; [4]) was 2.4 µM, the IC50 (CDK1/cyclin B; [9]) was 2.4 µM and the IC50 (A549; Table 4) was 2.2 µM. It also gave an IC50 (A549; Table 5, Lung) of 2.2 µM, an IC50 (HT29; Table 4) of 1.6 µM and an IC50 (HT29; Table 5, Colon) of 1.6 µM. For the same molecule, the IC50 (all transformed cells; [10]) was 1.6 µM, the IC50 (all transformed cells; [11]) was 1.1 µM and the IC50 (CDK9/cyclin T1; [5]) was 1.1 µM. For the same molecule, the IC50 (CDK9/cyclin T1; [12]) was 1.1 µM, the IC50 (Saos-2; Table 4) was 3.6 µM and the IC50 (Saos-2; Table 5, Bone osteosarcoma) was 3.7 µM.

Molecule Cc1nc(N)sc1-c1ccnc(Nc2ccc(N3CCOCC3)cc2)n1 [Compound 1, [4-(2-Amino-4-methyl-thiazol-5-yl)-pyrimidin-2-yl]-(4-morpholin-4-yl-phenyl)-amine] has an IC50 (CDK7/cyclin H; [2]) of 30 µM, an IC50 (CDK7/cyclin H; [7]) of 56 µM and an IC50 (A549; Table 4) of 2.1 µM. The IC50 (A549; Table 5, Lung) was 1 µM, the IC50 (HT29; Table 4) was 1.7 µM and the IC50 (HT29; Table 5, Colon) was 1.1 µM. The IC50 (all transformed cells; [10]) was 1.1 µM, the IC50 (all transformed cells; [11]) was 1 µM and the IC50 (Saos-2; Table 4) was 1.9 µM. The IC50 (Saos-2; Table 5, Bone osteosarcoma) was 0.1 µM.
